From US20230233569A1 (Revolution Medicines, Inc., priority 2020, published 2023)
Where two headings read alike, the source gives them in different places.

Assays:
Test in all cases: Disruption of BRAF RBD interaction with Ras (FRET / MOA assay, with Cyclophilin A)
Format in all cases: biochemical
KRAS G12C = KRAS G12C (Homo sapiens, UniProt P01116+P62937, G12C)
Outline: (§1)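 Compound-driven ternary complex formation between nucleotide-loaded K-Ras and Cyclophilin A was measured as loss of BRAF RBD binding. Compounds (10-point 3-fold series, top 30 μM final) were incubated 3 h at 25 °C, then anti-His Eu-W1024 (10 nM) and anti-GST allophycocyanin (50 nM) added for 1.5 h. IC50 was taken from the TR-FRET ratio decrease versus DMSO.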

KRAS G12D = KRAS G12D (Homo sapiens, UniProt P01116+P62937, G12D)
KRAS G12D, sequence (P01116 1-169 isoform P01116-2 G12D limits assumed): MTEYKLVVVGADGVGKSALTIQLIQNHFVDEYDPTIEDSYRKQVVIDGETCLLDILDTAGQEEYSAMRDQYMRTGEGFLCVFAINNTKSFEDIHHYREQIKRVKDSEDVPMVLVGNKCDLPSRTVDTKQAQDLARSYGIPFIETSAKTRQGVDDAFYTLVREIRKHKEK
KRAS G12D, sequence (P62937 whole entry): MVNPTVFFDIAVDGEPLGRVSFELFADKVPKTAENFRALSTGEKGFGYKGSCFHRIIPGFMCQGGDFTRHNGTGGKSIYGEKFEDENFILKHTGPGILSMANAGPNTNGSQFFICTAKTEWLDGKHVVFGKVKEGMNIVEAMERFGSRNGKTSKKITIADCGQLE
Outline: as §1

KRAS G12S = KRAS G12S (Homo sapiens, UniProt P01116+P62937, G12S)
KRAS G12S, sequence (P01116 1-169 isoform P01116-2 G12S limits assumed): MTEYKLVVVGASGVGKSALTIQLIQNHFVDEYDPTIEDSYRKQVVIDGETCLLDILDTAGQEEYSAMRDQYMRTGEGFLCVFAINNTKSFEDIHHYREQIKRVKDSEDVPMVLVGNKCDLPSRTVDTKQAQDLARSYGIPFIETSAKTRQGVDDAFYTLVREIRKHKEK
KRAS G12S, sequence (P62937 whole entry): as the sequence (P62937 whole entry) above
Outline: as §1

KRAS G12V = KRAS G12V (Homo sapiens, UniProt P01116+P62937, G12V)
KRAS G12V, sequence (P01116 1-169 isoform P01116-2 G12V limits assumed): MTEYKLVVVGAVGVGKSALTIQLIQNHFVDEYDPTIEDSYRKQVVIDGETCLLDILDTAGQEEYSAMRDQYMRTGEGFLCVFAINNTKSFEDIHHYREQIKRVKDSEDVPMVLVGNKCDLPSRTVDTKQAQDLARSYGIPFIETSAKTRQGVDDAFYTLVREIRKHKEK
KRAS G12V, sequence (P62937 whole entry): as the sequence (P62937 whole entry) above
Outline: as §1

KRAS G13C = KRAS G13C (Homo sapiens, UniProt P01116+P62937, G13C)
KRAS G13C, sequence (P01116 1-169 isoform P01116-2 G13C): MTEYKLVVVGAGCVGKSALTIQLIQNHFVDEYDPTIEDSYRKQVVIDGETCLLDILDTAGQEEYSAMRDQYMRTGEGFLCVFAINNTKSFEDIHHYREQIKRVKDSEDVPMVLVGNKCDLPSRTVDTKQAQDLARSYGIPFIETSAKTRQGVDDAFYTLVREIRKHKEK
KRAS G13C, sequence (P62937 whole entry): as the sequence (P62937 whole entry) above
Outline: as §1

KRAS G13D = KRAS G13D (Homo sapiens, UniProt P01116+P62937, G13D)
KRAS G13D, sequence (P01116 1-169 isoform P01116-2 G13D limits assumed): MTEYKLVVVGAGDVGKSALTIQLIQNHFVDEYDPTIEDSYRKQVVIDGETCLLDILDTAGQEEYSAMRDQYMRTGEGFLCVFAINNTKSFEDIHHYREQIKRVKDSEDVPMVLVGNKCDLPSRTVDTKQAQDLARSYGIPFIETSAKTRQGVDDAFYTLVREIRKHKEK
KRAS G13D, sequence (P62937 whole entry): as the sequence (P62937 whole entry) above
Outline: as §1

KRAS WT = KRAS WT (Homo sapiens, UniProt P01116+P62937)
KRAS WT, sequence (P01116 1-169 isoform P01116-2 limits assumed): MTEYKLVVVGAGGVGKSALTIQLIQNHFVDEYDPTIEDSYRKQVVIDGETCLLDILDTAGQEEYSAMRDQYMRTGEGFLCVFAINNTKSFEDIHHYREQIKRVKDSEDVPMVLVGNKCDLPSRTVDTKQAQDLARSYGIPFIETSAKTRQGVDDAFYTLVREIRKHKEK
KRAS WT, sequence (P62937 whole entry): as the sequence (P62937 whole entry) above
Outline: as §1

NRAS G12C = NRAS G12C (Homo sapiens, UniProt P01111+P62937, G12C)
NRAS G12C, sequence (P01111 whole entry G12C): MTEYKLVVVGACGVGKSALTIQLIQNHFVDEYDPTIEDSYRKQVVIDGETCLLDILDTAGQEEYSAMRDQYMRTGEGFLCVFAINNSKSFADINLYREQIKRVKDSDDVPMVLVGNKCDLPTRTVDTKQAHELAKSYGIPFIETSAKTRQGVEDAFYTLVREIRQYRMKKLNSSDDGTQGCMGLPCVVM
NRAS G12C, sequence (P62937 whole entry): as the sequence (P62937 whole entry) above

KRAS Q61H = KRAS Q61H (Homo sapiens, UniProt P01116+P62937, Q61H); conditions: KRAS Q61H; read-out: KRAS Q61H FRET data IC50
KRAS Q61H, sequence (P01116 1-169 isoform P01116-2 Q61H limits assumed): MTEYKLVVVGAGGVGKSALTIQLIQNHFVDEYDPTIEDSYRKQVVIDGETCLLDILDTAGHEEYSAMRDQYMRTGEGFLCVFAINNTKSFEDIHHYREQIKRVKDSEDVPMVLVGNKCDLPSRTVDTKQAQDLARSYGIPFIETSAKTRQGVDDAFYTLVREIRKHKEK
KRAS Q61H, sequence (P62937 whole entry): as the sequence (P62937 whole entry) above
Outline: (§2)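 TR-FRET in 25 mM HEPES pH 7.3, 100 mM NaCl, 5 mM MgCl2, 0.1% BSA: 25 μM Cyclophilin A, 12.5 nM His6-Ras-GMPPNP, 50 nM GST-BRAF RBD with compound (10-point 3-fold series from 30 μM), 3 h at 25° C. Anti-His Eu/anti-GST APC added, 1.5 h more; IC50 from decreased FRET ratio versus DMSO.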

NRAS Q61K = NRAS Q61K (Homo sapiens, UniProt P01111+P62937, Q61K); conditions: NRAS Q61K; read-out: NRAS Q61K FRET data IC50
NRAS Q61K, sequence (P01111 whole entry Q61K): as the sequence (P01111 whole entry G12C) above, with C12G, Q61K counted along it
NRAS Q61K, sequence (P62937 whole entry): as the sequence (P62937 whole entry) above
Outline: as §2

NRAS Q61R = NRAS Q61R (Homo sapiens, UniProt P01111+P62937, Q61R); conditions: NRAS Q61R; read-out: NRAS Q61R FRET data IC50
NRAS Q61R, sequence (P01111 whole entry Q61R): as the sequence (P01111 whole entry G12C) above, with C12G, Q61R counted along it
NRAS Q61R, sequence (P62937 whole entry): as the sequence (P62937 whole entry) above
Outline: as §2

[1] = KRAS G12C, read-out: KRAS G12C FRET data IC50
[2] = read-out: KRAS G12D FRET data, IC50
[3] = read-out: KRAS G12S FRET data, IC50
[4] = KRAS G12V, read-out: KRAS G12V FRET data IC50
[5] = KRAS G13C, read-out: KRAS G13C FRET data IC50
[6] = KRAS G13D, read-out: KRAS G13D FRET data IC50
[7] = KRAS WT, read-out: KRAS WT FRET data IC50
[8] = NRAS G12C, read-out: NRAS G12C FRET data IC50

KRAS G12C, sequence (P01116 1-169 isoform P01116-2 G12C): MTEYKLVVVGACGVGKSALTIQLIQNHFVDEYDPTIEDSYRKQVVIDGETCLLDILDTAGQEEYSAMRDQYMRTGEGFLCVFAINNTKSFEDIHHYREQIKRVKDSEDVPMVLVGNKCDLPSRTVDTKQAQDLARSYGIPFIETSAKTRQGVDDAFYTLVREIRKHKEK
KRAS G12C, sequence (P62937 whole entry): as the sequence (P62937 whole entry) above

SMILES	IC50 (KRAS G12C; [1]) [µM]	IC50 (KRAS G12D; [2]) [µM]	IC50 (KRAS G12S; [3]) [µM]	IC50 (KRAS G12V; [4]) [µM]	IC50 (KRAS G13C; [5]) [µM]	IC50 (KRAS G13D; [6]) [µM]	IC50 (KRAS WT; [7]) [µM]	IC50 (NRAS G12C; [8]) [µM]	IC50 (KRAS Q61H) [µM]	IC50 (NRAS Q61K) [µM]	IC50 (NRAS Q61R) [µM]	IC50 (KRAS G12C; KRAS G12C FRET data IC50, KRAS G12C) [µM]	IC50 (KRAS G12D; KRAS G12D FRET data, IC50) [µM]	IC50 (KRAS G12S; KRAS G12S FRET data, IC50) [µM]	IC50 (KRAS G12V; KRAS G12V FRET data IC50, KRAS G12V) [µM]	IC50 (KRAS G13C; KRAS G13C FRET data IC50, KRAS G13C) [µM]	IC50 (KRAS G13D; KRAS G13D FRET data IC50, KRAS G13D) [µM]	IC50 (KRAS WT; KRAS WT FRET data IC50, KRAS WT) [µM]	IC50 (NRAS G12C; NRAS G12C FRET data IC50, NRAS G12C) [µM]
CCn1c(-c2cccnc2[C@H](C)OC)c2c3cc(ccc31)N1CCO[C@@](C)(CC(NC(=O)[C@H](C(C)C)N(C)C(=O)C3(F)CCN(C(=O)C#CC(C)(C)N(C)C)CC3)C(=O)N3CCC[C@H](N3)C(=O)OCC(C)(C)C2)C1 (some centres unmarked) [Example A550]	< 0.01	1 to 10	1 to 10	0.1 to 1	0.1 to 1	1 to 10	0.1 to 1	< 0.01	1 to 10	1 to 10	1 to 10								
C=CC(=O)N1CCO[C@H]2CN(C(=O)N(C)[C@H](C(=O)N[C@H]3CN4CCC=C(C4)c4ccc5c(c4)c(c(-c4cccnc4[C@H](C)OC)n5CC)CC(C)(C)COC(=O)[C@@H]4CCCN(N4)C3=O)C(C)C)C[C@H]21 [Example A552]	0.01 to 0.1	1 to 10	1 to 10	1 to 10	0.01 to 0.1	1 to 10	0.1 to 1	0.01 to 0.1	0.1 to 1	1 to 10	1 to 10								
CCn1c(-c2cccnc2[C@H](C)OC)c2c3cc(ccc31)-c1cccc(c1)C[C@H](NC(=O)[C@H](C(C)C)N1CC[C@]3(CCN(C(=O)C#C[C@]4(N(C)C)CCOC4)C3)C1=O)C(=O)N1CCC[C@H](N1)C(=O)OCC(C)(C)C2 [Example A559]	0.01 to 0.1	1 to 10	1 to 10	1 to 10	0.1 to 1	1 to 10	1 to 10	0.01 to 0.1	0.1 to 1	1 to 10	1 to 10								
C=CC(=O)N1CCOC2(CCN(C(=O)N(C)[C@H](C(=O)N[C@H]3CN4CCC=C(C4)c4ccc5c(c4)c(c(-c4cccnc4[C@H](C)OC)n5CC)CC(C)(C)COC(=O)[C@@H]4CCCN(N4)C3=O)C(C)C)CC2)C1 [Example A563]	0.1 to 1	> 10	1 to 10	1 to 10	0.1 to 1	1 to 10	1 to 10	0.1 to 1	1 to 10	1 to 10	> 10								
CCn1c(-c2cccnc2[C@H](C)OC)c2c3cc(ccc31)-c1cccc(c1)C[C@H](NC(=O)[C@H](C(C)C)N1CC[C@]3(CCN(C(=O)C#C[C@@H]4COCCN4C4COC4)C3)C1=O)C(=O)N1CCC[C@H](N1)C(=O)OCC(C)(C)C2 [Example A565]	0.1 to 1	> 10	1 to 10	1 to 10	1 to 10	> 10	> 10	0.1 to 1	1 to 10	> 10	> 10								
CCn1c(-c2cccnc2[C@H](C)OC)c2c3cc(ccc31)-c1cccc(c1)C[C@H](NC(=O)[C@@H](CN1CC[C@]3(CCN(C(=O)C#C[C@H]4COCCN4C)C3)C1=O)C(C)C)C(=O)N1CCCC(N1)C(=O)OCC(C)(C)C2 (some centres unmarked) [Example A592]	0.01 to 0.1	> 10	1 to 10	1 to 10	1 to 10	> 10	> 10	0.01 to 0.1	1 to 10	> 10	> 10								
C=CC(=O)N1CCO[C@@]2(CCN(C(=O)N(C)[C@H](C(=O)N[C@H]3Cc4nc(cs4)-c4ccc5c(c4)c(c(-c4cccnc4[C@H](C)OC)n5CC(F)(F)F)CC(C)(C)COC(=O)C4CCCN(N4)C3=O)C(C)C)C2)C1 (some centres unmarked) [Example A594]									0.01 to 0.1	0.01 to 0.1	0.01 to 0.1	0.01 to 0.1	0.1 to 1	0.1 to 1	0.1 to 1	0.01 to 0.1	0.1 to 1	0.01 to 0.1	0.01 to 0.1
